Test results as given in publication PMC12621043, “Un-LOK-ing a New Approach for Conformational Selective Targeting of STK10 (LOK)” (ACS Medicinal Chemistry Letters, 2025).

Tests used:
STK4 (STK4A) = target: T1, STK4 (STK4A) (Homo sapiens, UniProt Q13043); experiment: DSF Tm panel; type: binding; details: 10 μM compound
T1 construct: purchased in-house DSF kinase panel (SGC-style construct names; the trailing letter is the construct ID)
T1 sequence (Q13043 1-311): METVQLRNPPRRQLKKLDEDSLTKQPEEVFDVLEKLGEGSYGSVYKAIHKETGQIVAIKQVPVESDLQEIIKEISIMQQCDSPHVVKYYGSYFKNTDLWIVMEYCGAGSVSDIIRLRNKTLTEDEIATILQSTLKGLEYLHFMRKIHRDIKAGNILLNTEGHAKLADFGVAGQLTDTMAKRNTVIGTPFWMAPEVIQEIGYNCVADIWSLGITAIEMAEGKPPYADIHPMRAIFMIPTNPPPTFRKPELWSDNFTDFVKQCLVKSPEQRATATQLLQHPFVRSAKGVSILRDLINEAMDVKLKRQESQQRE

CDK2A = target: T2, CDK2A (Homo sapiens, UniProt P24941); experiment: DSF Tm panel; type: binding; details: 10 μM compound
T2 construct: purchased in-house DSF kinase panel (SGC-style construct names; the trailing letter is the construct ID)

DYRK2A = target: T3, DYRK2A (Homo sapiens, UniProt Q92630); experiment: DSF Tm panel; type: binding; details: 10 μM compound
T3 construct: purchased in-house DSF kinase panel (SGC-style construct names; the trailing letter is the construct ID)
T3 sequence (Q92630 1-601): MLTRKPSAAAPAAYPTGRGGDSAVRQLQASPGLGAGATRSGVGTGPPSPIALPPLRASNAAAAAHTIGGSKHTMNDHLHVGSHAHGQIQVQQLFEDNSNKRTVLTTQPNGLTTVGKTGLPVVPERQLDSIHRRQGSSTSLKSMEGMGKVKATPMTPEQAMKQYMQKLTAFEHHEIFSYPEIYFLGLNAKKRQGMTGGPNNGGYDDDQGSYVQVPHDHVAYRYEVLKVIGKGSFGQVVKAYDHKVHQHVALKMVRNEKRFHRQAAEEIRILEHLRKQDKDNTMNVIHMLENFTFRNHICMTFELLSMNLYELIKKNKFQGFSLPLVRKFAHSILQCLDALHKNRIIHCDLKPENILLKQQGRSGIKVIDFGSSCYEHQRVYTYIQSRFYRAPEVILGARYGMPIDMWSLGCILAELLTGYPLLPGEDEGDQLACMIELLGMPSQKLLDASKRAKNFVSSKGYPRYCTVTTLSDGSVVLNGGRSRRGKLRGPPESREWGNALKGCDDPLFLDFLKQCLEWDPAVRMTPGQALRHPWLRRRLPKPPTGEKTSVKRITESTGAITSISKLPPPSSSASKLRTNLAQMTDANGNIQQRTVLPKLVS

CLK1A = target: T4, CLK1A (Homo sapiens, UniProt P49759); experiment: DSF Tm panel; type: binding; details: 10 μM compound
T4 construct: purchased in-house DSF kinase panel (SGC-style construct names; the trailing letter is the construct ID)
T4 sequence (P49759 148-484): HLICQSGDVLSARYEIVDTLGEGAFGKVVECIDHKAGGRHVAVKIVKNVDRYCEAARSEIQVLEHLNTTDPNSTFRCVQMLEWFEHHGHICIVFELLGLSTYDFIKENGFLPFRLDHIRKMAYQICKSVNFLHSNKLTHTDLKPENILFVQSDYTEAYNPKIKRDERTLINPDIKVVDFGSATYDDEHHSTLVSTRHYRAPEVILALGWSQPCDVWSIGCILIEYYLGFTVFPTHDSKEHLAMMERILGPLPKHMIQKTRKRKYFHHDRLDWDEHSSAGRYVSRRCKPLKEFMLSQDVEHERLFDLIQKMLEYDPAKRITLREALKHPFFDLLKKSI

STK39A = target: T5, STK39A (Homo sapiens, UniProt Q9UEW8); experiment: DSF Tm panel; type: binding; details: 10 μM compound
T5 construct: purchased in-house DSF kinase panel (SGC-style construct names; the trailing letter is the construct ID)

MELKA = target: T6, MELKA (Homo sapiens, UniProt Q14680); experiment: DSF Tm panel; type: binding; details: 10 μM compound
T6 construct: purchased in-house DSF kinase panel (SGC-style construct names; the trailing letter is the construct ID)
T6 sequence (Q14680 1-340): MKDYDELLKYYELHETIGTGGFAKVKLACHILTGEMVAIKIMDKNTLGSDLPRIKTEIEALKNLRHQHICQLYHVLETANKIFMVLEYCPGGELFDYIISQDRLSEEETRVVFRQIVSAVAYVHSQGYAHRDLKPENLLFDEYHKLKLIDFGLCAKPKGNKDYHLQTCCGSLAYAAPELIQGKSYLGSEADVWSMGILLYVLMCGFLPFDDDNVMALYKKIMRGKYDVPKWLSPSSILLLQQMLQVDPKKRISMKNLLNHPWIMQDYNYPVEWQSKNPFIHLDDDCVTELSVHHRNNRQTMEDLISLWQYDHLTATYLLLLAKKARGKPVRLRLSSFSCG

MAP3K5A = target: T7, MAP3K5A (Homo sapiens, UniProt Q99683); experiment: DSF Tm panel; type: binding; details: 10 μM compound
T7 construct: purchased in-house DSF kinase panel (SGC-style construct names; the trailing letter is the construct ID)
T7 sequence (Q99683 659-951): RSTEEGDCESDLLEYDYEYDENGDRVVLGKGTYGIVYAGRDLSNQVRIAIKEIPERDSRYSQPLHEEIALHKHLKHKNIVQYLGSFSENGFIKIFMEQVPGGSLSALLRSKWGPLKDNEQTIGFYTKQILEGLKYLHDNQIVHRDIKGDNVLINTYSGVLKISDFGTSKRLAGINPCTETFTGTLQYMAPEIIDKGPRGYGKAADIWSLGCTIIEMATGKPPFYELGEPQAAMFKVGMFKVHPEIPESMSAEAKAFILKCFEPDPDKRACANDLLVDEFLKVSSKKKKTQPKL

MAPK9A = target: T8, MAPK9A (Homo sapiens, UniProt P45984); experiment: DSF Tm panel; type: binding; details: 10 μM compound
T8 construct: purchased in-house DSF kinase panel (SGC-style construct names; the trailing letter is the construct ID)
T8 sequence (P45984 7-364): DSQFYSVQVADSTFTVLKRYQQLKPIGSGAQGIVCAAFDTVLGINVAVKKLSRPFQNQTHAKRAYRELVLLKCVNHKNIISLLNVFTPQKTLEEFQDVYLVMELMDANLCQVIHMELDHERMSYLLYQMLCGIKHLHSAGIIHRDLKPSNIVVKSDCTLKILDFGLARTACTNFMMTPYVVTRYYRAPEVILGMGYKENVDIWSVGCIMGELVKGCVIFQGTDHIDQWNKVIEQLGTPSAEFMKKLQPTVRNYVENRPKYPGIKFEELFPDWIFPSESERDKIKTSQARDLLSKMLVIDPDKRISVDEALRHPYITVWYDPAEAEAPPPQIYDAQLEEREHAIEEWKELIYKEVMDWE

MARK4A = target: T9, MARK4A (Homo sapiens, UniProt Q96L34); experiment: DSF Tm panel; type: binding; details: 10 μM compound
T9 construct: purchased in-house DSF kinase panel (SGC-style construct names; the trailing letter is the construct ID)
T9 sequence (Q96L34 59-310): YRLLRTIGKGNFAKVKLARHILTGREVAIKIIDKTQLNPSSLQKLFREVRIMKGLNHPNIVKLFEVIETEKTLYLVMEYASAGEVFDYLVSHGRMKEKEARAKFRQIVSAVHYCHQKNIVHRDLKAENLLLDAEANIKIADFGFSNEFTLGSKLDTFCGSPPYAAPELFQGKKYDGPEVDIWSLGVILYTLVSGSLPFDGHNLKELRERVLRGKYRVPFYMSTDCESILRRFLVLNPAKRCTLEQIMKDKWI

MAP2K6A = target: T10, MAP2K6A (Homo sapiens, UniProt P52564); experiment: DSF Tm panel; type: binding; details: 10 μM compound
T10 construct: purchased in-house DSF kinase panel (SGC-style construct names; the trailing letter is the construct ID)
T10 sequence (P52564 53-314): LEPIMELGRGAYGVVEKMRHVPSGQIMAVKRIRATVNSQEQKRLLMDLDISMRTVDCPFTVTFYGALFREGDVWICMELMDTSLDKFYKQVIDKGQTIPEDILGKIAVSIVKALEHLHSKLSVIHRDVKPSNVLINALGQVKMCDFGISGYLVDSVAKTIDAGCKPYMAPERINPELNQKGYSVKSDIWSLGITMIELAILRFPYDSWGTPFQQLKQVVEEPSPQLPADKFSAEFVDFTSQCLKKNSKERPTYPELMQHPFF

CAMK2BA = target: T11, CAMK2BA (Homo sapiens, UniProt Q13554); experiment: DSF Tm panel; type: binding; details: 10 μM compound
T11 construct: purchased in-house DSF kinase panel (SGC-style construct names; the trailing letter is the construct ID)
T11 sequence (Q13554 11-303): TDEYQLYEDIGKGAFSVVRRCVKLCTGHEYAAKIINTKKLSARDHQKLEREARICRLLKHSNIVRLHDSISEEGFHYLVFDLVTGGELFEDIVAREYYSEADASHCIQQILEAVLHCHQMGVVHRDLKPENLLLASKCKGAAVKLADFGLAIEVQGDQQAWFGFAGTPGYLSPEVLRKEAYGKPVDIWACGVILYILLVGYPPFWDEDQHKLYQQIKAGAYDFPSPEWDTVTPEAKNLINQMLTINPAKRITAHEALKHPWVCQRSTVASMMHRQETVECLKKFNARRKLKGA

MST4A = target: T12, MST4A (Homo sapiens, UniProt Q9P289); experiment: DSF Tm panel; type: binding; details: 10 μM compound
T12 construct: purchased in-house DSF kinase panel (SGC-style construct names; the trailing letter is the construct ID)
T12 sequence (Q9P289 1-300): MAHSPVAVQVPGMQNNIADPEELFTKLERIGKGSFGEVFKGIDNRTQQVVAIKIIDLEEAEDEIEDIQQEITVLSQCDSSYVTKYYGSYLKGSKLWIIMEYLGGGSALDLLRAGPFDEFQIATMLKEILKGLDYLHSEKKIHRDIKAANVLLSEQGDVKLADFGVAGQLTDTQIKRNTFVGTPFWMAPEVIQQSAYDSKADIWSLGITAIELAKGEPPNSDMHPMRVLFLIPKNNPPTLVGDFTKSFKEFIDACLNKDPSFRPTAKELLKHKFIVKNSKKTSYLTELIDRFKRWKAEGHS

ABL1 (ABL1A) = target: T13, ABL1 (ABL1A) (Homo sapiens, UniProt P00519); experiment: DSF Tm panel; type: binding; details: 10 μM compound
T13 construct: purchased in-house DSF kinase panel (SGC-style construct names; the trailing letter is the construct ID)
T13 sequence (P00519 229-512): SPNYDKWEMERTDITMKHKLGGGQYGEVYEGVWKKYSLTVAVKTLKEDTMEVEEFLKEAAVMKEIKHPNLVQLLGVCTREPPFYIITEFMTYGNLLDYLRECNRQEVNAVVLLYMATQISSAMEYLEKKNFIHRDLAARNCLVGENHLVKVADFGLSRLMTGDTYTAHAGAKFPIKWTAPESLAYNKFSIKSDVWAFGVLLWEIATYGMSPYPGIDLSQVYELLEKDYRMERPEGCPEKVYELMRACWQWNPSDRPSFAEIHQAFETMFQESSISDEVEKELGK

DCAMKL1A = target: T14, DCAMKL1A (Homo sapiens, UniProt O15075); experiment: DSF Tm panel; type: binding; details: 10 μM compound
T14 construct: purchased in-house DSF kinase panel (SGC-style construct names; the trailing letter is the construct ID)
T14 sequence (O15075 372-649): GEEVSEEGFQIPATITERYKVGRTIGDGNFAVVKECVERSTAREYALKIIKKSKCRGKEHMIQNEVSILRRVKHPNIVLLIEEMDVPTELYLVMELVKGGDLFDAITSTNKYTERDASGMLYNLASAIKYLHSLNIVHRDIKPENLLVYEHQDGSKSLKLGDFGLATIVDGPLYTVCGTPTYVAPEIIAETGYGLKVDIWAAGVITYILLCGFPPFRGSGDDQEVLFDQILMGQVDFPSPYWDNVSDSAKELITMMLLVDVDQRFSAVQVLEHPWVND

CSNK1DA = target: T15, CSNK1DA (Homo sapiens, UniProt P48730); experiment: DSF Tm panel; type: binding; details: 10 μM compound
T15 construct: purchased in-house DSF kinase panel (SGC-style construct names; the trailing letter is the construct ID)
T15 sequence (P48730 1-294): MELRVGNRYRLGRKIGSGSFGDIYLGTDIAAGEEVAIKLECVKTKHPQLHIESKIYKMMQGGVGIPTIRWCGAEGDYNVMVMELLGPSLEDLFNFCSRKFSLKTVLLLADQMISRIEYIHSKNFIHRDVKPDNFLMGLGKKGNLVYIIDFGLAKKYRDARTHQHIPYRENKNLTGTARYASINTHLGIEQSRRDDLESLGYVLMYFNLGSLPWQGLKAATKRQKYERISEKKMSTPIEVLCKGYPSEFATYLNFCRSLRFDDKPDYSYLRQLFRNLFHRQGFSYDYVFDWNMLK

SRPK1A = target: T16, SRPK1A (Homo sapiens, UniProt Q96SB4); experiment: DSF Tm panel; type: binding; details: 10 μM compound
T16 construct: purchased in-house DSF kinase panel (SGC-style construct names; the trailing letter is the construct ID)
T16 sequence (Q96SB4 80-653): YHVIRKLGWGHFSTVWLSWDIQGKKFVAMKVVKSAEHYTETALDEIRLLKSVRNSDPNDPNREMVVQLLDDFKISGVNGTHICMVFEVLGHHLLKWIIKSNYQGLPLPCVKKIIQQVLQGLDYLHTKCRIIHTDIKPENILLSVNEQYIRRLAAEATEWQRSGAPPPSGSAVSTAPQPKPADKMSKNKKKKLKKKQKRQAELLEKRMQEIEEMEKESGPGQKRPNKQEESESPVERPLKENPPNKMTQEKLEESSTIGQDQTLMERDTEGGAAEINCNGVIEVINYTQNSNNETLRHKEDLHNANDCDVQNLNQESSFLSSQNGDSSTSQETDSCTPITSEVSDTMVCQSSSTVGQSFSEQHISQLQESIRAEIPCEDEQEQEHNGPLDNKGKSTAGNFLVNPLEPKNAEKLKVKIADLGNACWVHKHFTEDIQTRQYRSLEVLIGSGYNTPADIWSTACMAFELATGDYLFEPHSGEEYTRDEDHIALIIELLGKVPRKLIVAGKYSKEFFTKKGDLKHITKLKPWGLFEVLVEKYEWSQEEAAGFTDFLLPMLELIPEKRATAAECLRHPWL

SLK = SLK (Homo sapiens, UniProt Q9H2G2); experiment: PhosphoSens in vitro activity assay; type: biochemical; details: ATP 150 μM

| SMILES | ΔTm at 10 µM (STK4 (STK4A)) | ΔTm at 10 µM (CDK2A) | ΔTm at 10 µM (DYRK2A) | ΔTm at 10 µM (CLK1A) | ΔTm at 10 µM (STK39A) | ΔTm at 10 µM (MELKA) | ΔTm at 10 µM (MAP3K5A) | ΔTm at 10 µM (MAPK9A) | ΔTm at 10 µM (MARK4A) | ΔTm at 10 µM (MAP2K6A) | ΔTm at 10 µM (CAMK2BA) | ΔTm at 10 µM (MST4A) | ΔTm at 10 µM (ABL1 (ABL1A)) | ΔTm at 10 µM (DCAMKL1A) | ΔTm at 10 µM (CSNK1DA) | ΔTm at 10 µM (SRPK1A) | IC50 (SLK) |
| --- | --- | --- | --- | --- | --- | --- | --- | --- | --- | --- | --- | --- | --- | --- | --- | --- | --- |
| O=C(NCc1ccccc1)Nc1ccc2cc1OCCOCCNc1ccn3ncc-2c3n1 [compound 16] | 4.9 °C | 4.1 °C | 3.7 °C | 3.4 °C | 3 °C | 2 °C | 2 °C | 1.7 °C | 1.7 °C | 1.4 °C | 1.3 °C | 1.3 °C | 1.2 °C | 0.8 °C | 0.7 °C | 0 °C | 9.36 ± 1.77 µM |
| O=C(NCc1ccccc1Cl)Nc1ccc2cc1OCCOCCNc1ccn3ncc-2c3n1 [compound 17] | 4.1 °C | 2.9 °C | 1.1 °C | 4.5 °C | 2.4 °C | 2.4 °C | 1 °C | 0.4 °C | 2.2 °C | 0.9 °C | 0.3 °C | 0.7 °C | 1.7 °C | 0.7 °C | 0.6 °C | 0 °C | 6.83 ± 1.58 µM |
| O=C(NCc1cccc(Cl)c1)Nc1ccc2cc1OCCOCCNc1ccn3ncc-2c3n1 [compound 18] | 4.5 °C | 4.3 °C | 2.8 °C | 2.9 °C | 4 °C | 1.5 °C | 1.6 °C | 0.5 °C | 1.4 °C | 1.2 °C | 0.8 °C | 0.8 °C | 1.8 °C | -0.1 °C | 0.4 °C | -0.3 °C | 5.93 ± 0.76 µM |
| O=C(NCc1ccc(Cl)cc1)Nc1ccc2cc1OCCOCCNc1ccn3ncc-2c3n1 [compound 19] | 5.5 °C | 5.6 °C | 0.2 °C | 2.1 °C | 2.6 °C | 1.5 °C | 1.4 °C | 0.3 °C | 2 °C | 1.1 °C | -0.1 °C | 1.1 °C | 1.8 °C | 0 °C | 0.4 °C | 0.2 °C | 7.16 ± 1.12 µM |
| O=C(NCc1ccc(Cl)cc1Cl)Nc1ccc2cc1OCCOCCNc1ccn3ncc-2c3n1 [compound 20] | 3.6 °C | 2.5 °C | 0.6 °C | 2.1 °C | 1.9 °C | 0.9 °C | 2.2 °C | 1.5 °C | 2 °C | 1.1 °C | 1.6 °C | 0.5 °C | 2.2 °C | 0.6 °C | 0.4 °C | 0.6 °C | 7.44 ± 1.64 µM |
| O=C(NCc1ccc(Cl)cc1F)Nc1ccc2cc1OCCOCCNc1ccn3ncc-2c3n1 [compound 21] | 4.9 °C | 5.9 °C | 0.7 °C | 2.8 °C | 2.4 °C | 2.4 °C | 2.7 °C | 0.3 °C | 2.6 °C | 1.3 °C | 0.8 °C | 1.1 °C | 2.3 °C | 0.4 °C | 0 °C | 0.4 °C | 8.88 ± 1.41 µM |
| Cc1cc(Cl)ccc1CNC(=O)Nc1ccc2cc1OCCOCCNc1ccn3ncc-2c3n1 [compound 23] | 7.4 °C | 3.1 °C | 0.8 °C | 2.6 °C | 2.5 °C | 1.1 °C | 1 °C | 2 °C | 1.5 °C | 0.4 °C | 0.9 °C | 2.1 °C | 1.7 °C | 0.7 °C | 1.2 °C | 0.2 °C | 3.43 ± 1.12 µM |
| O=C(NCc1ccc(C(F)(F)F)cc1)Nc1ccc2cc1OCCOCCNc1ccn3ncc-2c3n1 [compound 28] | 4.3 °C | 3.3 °C | 1.2 °C | 2.3 °C | 1.3 °C | 0.9 °C | 2.1 °C | -0.2 °C | 2.7 °C | 1.1 °C | 0.3 °C | 2.1 °C | 0.9 °C | 2.7 °C | -0.5 °C | 0 °C | – |
| COc1ccc(CNC(=O)Nc2ccc3cc2OCCOCCNc2ccn4ncc-3c4n2)cc1 [compound 31] | 4.1 °C | 3.3 °C | 1.9 °C | 2.8 °C | 1.2 °C | 1.7 °C | 1.6 °C | -1.3 °C | 2 °C | 1.2 °C | -0.1 °C | 0.9 °C | 1.7 °C | 1.4 °C | 0.1 °C | 0.1 °C | – |
| CN1CCN(C(=O)Nc2ccc3cc2OCCOCCNc2ccn4ncc-3c4n2)CC1 [compound 35] | 0.9 °C | 1.4 °C | 1.8 °C | 2.9 °C | 1.6 °C | 2.2 °C | 1.7 °C | 0.4 °C | 0.8 °C | 0.4 °C | 0.6 °C | -0.4 °C | 1.4 °C | 0.6 °C | 0.5 °C | 0.2 °C | – |
